Measurements taken from PubChem BioAssay (NCI).
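Growth conditions: 96-well plates. Treatment: test compound, 48 hours, 5 concentrations. Analysis: linear interpolation between bracketing concentrations; unreached endpoints set to highest concentration. At the TGI there is no net growth.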 Where a SMILES comes first, the peptide text is derived from it. Side-chain parts run from the residue outwards. The star is where a group is joined. Cbz = O=C(OCc1ccccc1)*; Boc = CC(C)(C)OC(=O)*

Columns and labels:
Test in all cases: NCI-60 cell line screen, 48 h
[1] = test system: CCRF-CEM leukemia
[2] = test system: OVCAR-4 ovarian
[3] = test system: BT-549 breast
[4] = test system: SK-MEL-5 melanoma
[5] = test system: IGROV1 ovarian
[6] = test system: MDA-MB-435
[7] = test system: SW-620 colon
[8] = test system: UO-31 renal
[9] = test system: HL-60(TB) leukemia
[10] = test system: CAKI-1 renal
[11] = test system: PC-3 prostate
[12] = test system: MDA-MB-231 breast
[13] = test system: T-47D breast

Compound | TGI [1] [µM] | TGI [2] [µM] | TGI [3] [µM] | TGI [4] [µM] | TGI [5] [µM] | TGI [6] [µM] | TGI [7] [µM] | TGI [8] [µM] | TGI [9] [µM] | TGI [10] [µM] | TGI [11] [µM] | TGI [12] [µM] | TGI [13] [µM]
CC1=CC(=O)/C(=C/n2c(=S)[nH]c3cc(C)ccc32)C(=O)O1 | > 100 | > 100 | > 100 | > 100 | > 100 | > 100 | > 100 | > 100 | > 100 | > 100 | > 100 | > 100 | –
CC(C)(C)OC(=O)NC(CCCCNC(=O)CNC(=O)OCc1ccccc1)C(=O)NC(CCCCNC(=O)CNC(=O)OCc1ccccc1)C(=O)NC(CCCCNC(=O)CNC(=O)OCc1ccccc1)C(=O)NC(CCCCNC(=O)CNC(=O)OCc1ccccc1)C(=O)O (configuration not stated) (Boc-K([Gly-Cbz])K([Gly-Cbz])K([Gly-Cbz])K([Gly-Cbz])-OH; configuration not given here) | > 100 | – | > 100 | > 100 | > 100 | – | > 100 | > 100 | > 100 | > 100 | > 100 | > 100 | > 100
NC1=Nc2ccccc2Sc2nc3ccccc3n21 | > 100 | > 100 | > 100 | > 100 | > 100 | – | > 100 | 40.9 | 6.49 | – | > 100 | > 100 | > 100
O=C1CC(C(COCc2ccccc2)OCc2ccccc2)CC(=O)N1 (configuration not stated) | > 100 | – | > 100 | > 100 | > 100 | > 100 | > 100 | > 100 | > 100 | > 100 | > 100 | > 100 | > 100
C[C@]12CC[C@H](O)CC1=CC[C@@H]1[C@@H]2CC[C@]2(C)C(=O)/C(=C/c3ccc([N+](=O)[O-])cc3)C[C@@H]12 | > 100 | 32.3 | 57.5 | 43.5 | 21.8 | > 100 | > 100 | 28 | > 100 | > 100 | 31 | – | 61.6
Cn1c(COC(=O)NC2CCCCC2)c(COC(=O)NC2CCCCC2)c2ccc3cc(C=O)ccc3c21 | > 100 | – | > 100 | > 100 | > 100 | > 100 | > 100 | > 100 | > 100 | > 100 | > 100 | > 100 | > 100
O=S1(=O)OCCCOS(=O)(=O)C1(Br)Br | > 100 | > 100 | > 100 | > 100 | – | > 100 | > 100 | > 100 | > 100 | > 100 | > 100 | – | > 100
CN(C)CC1CCCc2ccccc2C1=O (configuration not stated) | – | 2.01 | 9.8 | 15.9 | 4.17 | 2.62 | – | 3.45 | – | 6.25 | 3 | 9.7 | 17
C=CCOCn1ccc(N)nc1=O | > 100 | – | > 100 | > 100 | > 100 | > 100 | > 100 | > 100 | > 100 | > 100 | > 100 | > 100 | > 100
O=c1[nH]c(=O)n(COCc2ccccc2)c2ccccc12 | > 100 | > 100 | – | > 100 | > 100 | > 100 | > 100 | > 100 | > 100 | > 100 | > 100 | > 100 | –
CC1(C)CN=CC(C)(OCc2ccccc2)C(=O)NC(C)(C)CN=CC(C)(OCc2ccccc2)C(=O)N1 (configuration not stated) | > 10 | – | > 10 | > 10 | > 10 | > 10 | > 10 | > 10 | > 10 | – | > 10 | > 10 | > 10
COc1cc(S(=O)(=O)Nc2ccc(-c3csc(N4C(=O)C(C)SC4c4ccccc4)n3)cc2)ccc1Cl (configuration not stated) | > 100 | > 100 | > 100 | > 100 | > 100 | > 100 | > 100 | > 100 | 47.7 | > 100 | > 100 | – | 54.2
CS(=O)(=O)OCC1CCCCCCCCCCC12SCCCS2 (configuration not stated) | > 100 | > 100 | – | > 100 | > 100 | > 100 | > 100 | > 100 | > 100 | > 100 | > 100 | > 100 | > 100
Cc1ccc2c(=O)cc(Cc3csc4ccccc34)[nH]c2n1 | > 100 | 91.4 | 66.4 | 32.4 | 30.9 | > 100 | > 100 | 80.1 | – | > 100 | > 100 | > 100 | 73.2
CN1C=COC1N=C1CCCCC1 (configuration not stated) | > 100 | > 100 | – | > 100 | > 100 | > 100 | 12.1 | > 100 | > 100 | 9.16 | > 100 | > 100 | > 100
C1=CN2C[n+]3ccc4ccccc4c3N=C2c2ccccc21 | 23.7 | – | 20.9 | 1.5 | 20.2 | 7.24 | 34.2 | 69.3 | 9.1 | 50.2 | 31.1 | 23.6 | 5.29
CC1C(C#N)(C#N)C(C#N)=C(N)C1(C)[N+](=O)[O-] (configuration not stated) | > 100 | > 100 | > 100 | > 100 | > 100 | > 100 | > 100 | > 100 | 90.7 | > 100 | > 100 | > 100 | –
